Source: PubChem BioAssay AID1552 (Sanford-Burnham Center for Chemical Genomics, 2009)
The source made the active and inactive calls. No rule for the calls is given here.

What follows are compounds tested against Ubiquitin-conjugating enzyme E2 N (Homo sapiens) (UniProt P61088) (assay: UBE2N binders by NMR, biophysical, purified protein (AID 1552)). Conditions: NMR binding to purified UBE2N.
Sequence of Ubiquitin-conjugating enzyme E2 N (Homo sapiens) (P61088 whole entry, looked up): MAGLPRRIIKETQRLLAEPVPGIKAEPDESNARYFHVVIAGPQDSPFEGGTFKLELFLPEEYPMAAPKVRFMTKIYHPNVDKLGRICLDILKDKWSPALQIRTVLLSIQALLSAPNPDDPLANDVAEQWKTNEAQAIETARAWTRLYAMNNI
For `O=C(c1ccco1)N1CCCN(C(=O)c2ccco2)CC1`, the Kd was > 4 mM (inactive).
In the case of `Cn1c(SCCC(=O)O)nnc1-c1cccnc1`, the Kd is reported as > 4 mM (inactive).
With `C=C1C2CC[C@@]3(C)[C@H](c4ccoc4)OC(=O)C[C@]13O[C@H]1CC(=O)C(C)(C)[C@H](C(OC(C)=O)C(=O)OC)[C@@]21C` (some centres not stated) the Kd was > 4 mM (inactive).
In the case of `CC(C)(O)[C@@H]1Cc2cc3ccc(=O)oc3cc2O1`, the Kd is reported as > 4 mM (inactive).
`c1ccc2[nH]c(NCCN3CCOCC3)nc2c1` was tested, and the Kd was > 4 mM (inactive).
For `COc1ccc2c(CC(=O)O)coc2c1`, the Kd was > 4 mM (inactive).
In the case of `Nc1ccc2sccc2c1`, the Kd is reported as > 4 mM (inactive).
In the case of `CS(=O)(=O)c1ccc2nc(N)sc2c1`, the Kd is reported as > 4 mM (inactive).
In the case of `Cc1cc(=O)[nH]c(N)n1`, the Kd is reported as > 4 mM (inactive).
In the case of `CC(=O)Oc1ccc(-c2nc(-c3cccnc3)no2)cc1`, the Kd is reported as > 4 mM (inactive).
In the case of `CN1CCN(S(=O)(=O)c2ccc(=O)[nH]c2)CC1`, the Kd is reported as > 4 mM (inactive).
With `O=C(Cc1c(F)cccc1Cl)Nc1ccncc1` the Kd was > 4 mM (inactive).
In the case of `Cc1n[nH]c(=S)[nH]c1=O`, the Kd is reported as > 4 mM (inactive).
`CCn1c(C)c(C(C)=O)c(N2CCOCC2)nc1=S` was tested, and the Kd was > 4 mM (inactive).
With `CCn1c2ccccc2c2nn(C)c(=N)nc21` the Kd was > 4 mM (inactive).
In the case of `c1ccc(C[N+]23CCN(CC2)CC3)cc1`, the Kd is reported as > 4 mM (inactive).
For `C=CCNC(=O)c1ccc(Cl)cc1Cl`, the Kd was > 4 mM (inactive).
For `CC(=O)NS(=O)(=O)c1ccc(C)cc1`, the Kd was > 4 mM (inactive).
With `COc1ccc2c(c1)OCC(Cc1ccc(OC)c(OC(C)=O)c1)C2=O` (configuration not stated) the Kd was > 4 mM (inactive).
With `Cc1ccc(C(=O)Nc2ccncc2)o1` the Kd was > 4 mM (inactive).
With `COCc1c(CN)cnc(C)c1N` the Kd was > 4 mM (inactive).
In the case of `O=C(Nc1nnc(-c2ccco2)o1)C1=COCCO1`, the Kd is reported as > 4 mM (inactive).
In the case of `CC1CC2(NC(=O)NC2=O)C(C)CN1C` (configuration not stated), the Kd is reported as > 4 mM (inactive).
`O=C(O)c1cc2ccccc2s1` was tested, and the Kd was > 4 mM (inactive).
With `NC1=NC(=O)/C(=C/c2ccc(O)c(Cl)c2)S1` the Kd was > 4 mM (inactive).
With `Cc1cc(O)c2c(c1)C(=O)c1cccc(O)c1C2=O` the Kd was > 4 mM (inactive).
`Cc1csc2nc(=O)c3ccccc3n12` was tested, and the Kd was > 4 mM (inactive).
With `O=C1Nc2ccc(S(=O)(=O)NCCO)c3cccc1c23` the Kd was > 4 mM (inactive).
In the case of `CC(C)c1c(O)ccc2c1CCC1[C@@](C)(CO)CCC[C@]21C` (some centres not stated), the Kd is reported as > 4 mM (inactive).
In the case of `COc1c(C(C)C)oc2cc3oc(=O)ccc3cc12`, the Kd is reported as > 4 mM (inactive).
In the case of `O=C(Nc1ccon1)c1sc2cc(F)ccc2c1Cl`, the Kd is reported as > 4 mM (inactive).
With `Cc1cc(NC(=O)c2ccc3c(c2)OCCO3)no1` the Kd was > 4 mM (inactive).
With `COc1ccc([C@H]2Oc3c(I)c(OC)cc(OC)c3C[C@@H]2O)cc1OC` the Kd was > 4 mM (inactive).
In the case of `O=C(O)C1COc2ccccc2C1` (configuration not stated), the Kd is reported as > 4 mM (inactive).
For `CC(=O)Oc1cc(OC(C)=O)c2c(c1)O[C@H](c1ccc(OC(C)=O)c(OC(C)=O)c1)[C@H](OC(C)=O)C2`, the Kd was > 4 mM (inactive).
In the case of `c1ccc2c(NC3=NCCS3)cccc2c1`, the Kd is reported as > 4 mM (inactive).
`OC1CCN(Cc2ccc[nH]2)CC1` was tested, and the Kd was > 4 mM (inactive).
In the case of `Cc1nn(C)c(C)c1C(=O)O`, the Kd is reported as > 4 mM (inactive).
For `CC(C)=CCc1c(O)cc2occ(-c3ccc4c(c3)OCO4)c(=O)c2c1O`, the Kd was > 4 mM (inactive).
For `COc1ccc(C(N)=O)cc1N`, the Kd was > 4 mM (inactive).
For `CSc1ccccc1NC(=O)c1cnccn1`, the Kd was > 4 mM (inactive).
For `CN1CCN(c2ccc(CN)cc2)CC1`, the Kd was > 4 mM (inactive).
In the case of `Cc1[nH]c(=O)[nH]c(=O)c1N1CCOCC1`, the Kd is reported as > 4 mM (inactive).
With `CN1CCN(CC(=O)Nc2ccccc2)CC1` the Kd was > 4 mM (inactive).
In the case of `CC(=O)NC1=NN(c2ccccc2)C(=O)C1`, the Kd is reported as > 4 mM (inactive).
For `O=C1NC2NC(=O)N(c3ccccc3)C2N1` (configuration not stated), the Kd was > 4 mM (inactive).
In the case of `COc1ccc(-c2coc3c(OC)c(OC)cc(O)c3c2=O)cc1`, the Kd is reported as > 4 mM (inactive).
In the case of `O=CN1CCN(C(=O)c2ccc(F)cc2)CC1`, the Kd is reported as > 4 mM (inactive).
With `CCC(C)C(=O)c1c(O)c(C)c2oc3c(C)c(O)c(C(=O)C(C)CC)c(O)c3c2c1O` (configuration not stated) the Kd was > 4 mM (inactive).
For `C[C@@H]1O[C@@H](O[C@H]2[C@@H](Oc3cc(O)c4c(c3)O[C@H](c3ccc(O)cc3)CC4=O)O[C@H](CO)[C@@H](O)[C@@H]2O)[C@H](O)[C@H](O)[C@H]1O`, the Kd was > 4 mM (inactive).
With `O=C(NCc1ccco1)c1ccc(Br)s1` the Kd was > 4 mM (inactive).
`CC(=O)Nc1cccc(Cn2cccn2)c1` was tested, and the Kd was > 4 mM (inactive).
`CC(=O)OCc1cc(=O)n(C)c(=O)n1C` was tested, and the Kd was > 4 mM (inactive).
In the case of `CN(C)c1oc(-c2ccccc2Cl)nc1C#N`, the Kd is reported as > 4 mM (inactive).
With `CCOc1ccccc1C(=O)NC1=NCCS1` the Kd was > 4 mM (inactive).
In the case of `CC(C)NC(=S)NCc1cnn(C)c1`, the Kd is reported as > 4 mM (inactive).
For `O=C(O)c1cccc(O)c1O`, the Kd was > 4 mM (inactive).
For `O=c1oc2ccccc2cc1O`, the Kd was > 4 mM (inactive).
In the case of `C[C@@H]1OC(O[C@H]2C(O[C@H]3CC[C@@]4(C)C(CC[C@]5(C)C4CC=C4C6CC(C)(C)CC[C@]6(C(=O)O)CC[C@]45C)[C@]3(C)CO)OC[C@H](O)[C@@H]2O)[C@H](O)[C@H](O)[C@H]1O` (some centres not stated), the Kd is reported as > 4 mM (inactive).
`CCc1ccc(C(=O)N2CCCC2)s1` was tested, and the Kd was > 4 mM (inactive).
`CNC(=O)c1c(O)c2ccccc2[nH]c1=O` was tested, and the Kd was > 4 mM (inactive).
`NC(C(=O)O)C(O)c1ccccc1` (configuration not stated) was tested, and the Kd was > 4 mM (inactive).
In the case of `COc1ccc(Cl)c(S(=O)(=O)N2CCCC2)c1`, the Kd is reported as > 4 mM (inactive).
`NC(=NCCC[C@H](N)C(=O)O)NC(CCC(=O)O)C(=O)O` (some centres not stated) was tested, and the Kd was > 4 mM (inactive).
In the case of `CC(=O)OC/C=C(\C)CC/C=C(\C)CC/C=C(\C)CC/C=C(\C)CC/C=C(\C)CC/C=C(\C)CC/C=C(\C)CC/C=C(\C)CCC=C(C)C`, the Kd is reported as > 4 mM (inactive).
For `CC1(C)N([O-])c2cc([N+](=O)[O-])ccc2[N+]1=O`, the Kd was > 4 mM (inactive).
With `COc1ccc([C@@H](C)C(=O)c2ccc(O)cc2O)cc1` the Kd was > 4 mM (inactive).
For `Cc1cc(C)n2c(SCc3cccs3)nnc2n1`, the Kd was > 4 mM (inactive).
`C[C@H](CCC(=O)O)[C@H]1CCC2C3C(CC[C@@]21C)[C@@]1(C)CC[C@@H](O)C[C@H]1C[C@@H]3O` (some centres not stated) was tested, and the Kd was > 4 mM (inactive).
`CCc1c(C)[nH]c(=S)c(C(N)=O)c1C` was tested, and the Kd was > 4 mM (inactive).
With `Cc1cc(=O)c2ccccc2n1CC(N)=O` the Kd was > 4 mM (inactive).
With `O=C1CCCN1C(=O)c1ccc(F)cc1` the Kd was > 4 mM (inactive).
For `O=C1Nc2ccccc2C1C1(O)C(=O)Nc2ccc(F)cc21` (configuration not stated), the Kd was > 4 mM (inactive).
`O=C1CC(c2ccccc2)n2ncnc2N1` (configuration not stated) was tested, and the Kd was > 4 mM (inactive).
For `Cc1c(CO)cnn1-c1ccc(F)cc1`, the Kd was > 4 mM (inactive).
`NC(=O)CSc1ncnc2ccccc12` was tested, and the Kd was > 4 mM (inactive).
`NC(=O)CSc1nc2ccccc2o1` was tested, and the Kd was > 4 mM (inactive).
`CCOc1ccc(C)cc1S(=O)(=O)n1ccnc1` was tested, and the Kd was > 4 mM (inactive).
`O=C1CCC(C(=O)NCc2ccc(Cl)cc2)N1` (configuration not stated) was tested, and the Kd was > 4 mM (inactive).
With `COC(=O)CSc1n[nH]c(N)n1` the Kd was > 4 mM (inactive).
With `COC(=O)CSc1nc(N)cc(=O)[nH]1` the Kd was > 4 mM (inactive).
For `Nc1cc(C(=O)O)ccc1N1CCCCCC1`, the Kd was > 4 mM (inactive).
In the case of `CSc1nc2[nH]ncc2c(=O)[nH]1`, the Kd is reported as > 4 mM (inactive).
For `C#CCCCCCCCCCCCc1ccco1`, the Kd was > 4 mM (inactive).
With `C=C1C2CC[C@@]3(C)[C@H](c4ccoc4)OC(=O)C[C@]13O[C@H]1CC(=O)C(C)(C)C(CC(=O)OC)C21C` (some centres not stated) the Kd was > 4 mM (inactive).
In the case of `COC(=O)C[C@@H]1C2(C)C(=O)[C@@H](CC3=C4CC(=O)O[C@@H](c5ccoc5)[C@]4(C)CCC32)[C@H](OC(C)=O)C1(C)C` (some centres not stated), the Kd is reported as > 4 mM (inactive).
For `CC(=O)c1cccc(NC(=O)Nc2c(C)nn(C)c2C)c1`, the Kd was > 4 mM (inactive).
For `Oc1ccc2nonc2c1`, the Kd was > 4 mM (inactive).
In the case of `OCC1CN(Cc2ccccc2)CCO1` (configuration not stated), the Kd is reported as > 4 mM (inactive).
For `O=C(CSc1ncn[nH]1)c1ccccc1`, the Kd was > 4 mM (inactive).
For `O=S(=O)(c1cccc(Cl)c1)N1CCCC1`, the Kd was > 4 mM (inactive).
`CC(=O)Nc1ccc(N(C)C(C)=O)cc1` was tested, and the Kd was > 4 mM (inactive).
For `CC1(C)Cc2cccc(CO)c2O1`, the Kd was > 4 mM (inactive).
With `COc1ccc(C(=O)NCC(=O)O)cc1` the Kd was > 4 mM (inactive).
For `COC(=O)c1noc(-c2ccc(OC)cc2)n1`, the Kd was > 4 mM (inactive).
`CC(=O)N=c1cccc(NC(C)=O)n1O` was tested, and the Kd was > 4 mM (inactive).
For `OCc1ncoc1-c1ccccc1`, the Kd was > 4 mM (inactive).
With `COc1ccccc1NC(C)=O` the Kd was > 4 mM (inactive).
With `CC(=O)N1C(=S)NC(=O)/C1=C\c1cccnc1` the Kd was > 4 mM (inactive).
For `NCc1cc2ccccc2s1`, the Kd was > 4 mM (inactive).
With `Cc1nc(N2CCOCC2)[nH]c(=O)c1C` the Kd was > 4 mM (inactive).
In the case of `Cc1cc(NC(=O)c2ocnc2C)no1`, the Kd is reported as > 4 mM (inactive).
For `C=C1CCC2C(CC2(C)C)C(=C)CC/C1=N/O` (configuration not stated), the Kd was > 4 mM (inactive).
In the case of `CCOC(=O)c1csc(N)n1`, the Kd is reported as > 4 mM (inactive).
In the case of `CC(=O)N(C)Cc1nc2ccccc2n1C`, the Kd is reported as > 4 mM (inactive).
With `O=C(O)C1CSC(c2cccnc2)N1` (configuration not stated) the Kd was > 4 mM (inactive).
`CC1=C(/C=C/C(C)=C/C=C/C(C)=C/C=C/C=C(C)/C=C/C=C(C)/C=C/C(=O)[C@]2(C)C[C@@H](O)CC2(C)C)C(C)(C)C[C@H](O)C1` was tested, and the Kd was > 4 mM (inactive).
In the case of `CCc1noc(C)c1C(=O)N1CCOCC1`, the Kd is reported as > 4 mM (inactive).
In the case of `OCC1COc2ccccc2C1` (configuration not stated), the Kd is reported as > 4 mM (inactive).
For `COC(=O)c1cccc(Cn2nnc3ccccc3c2=O)c1`, the Kd was > 4 mM (inactive).
`Cc1c(C(=O)Nc2ccccc2)sc(N)c1C(N)=O` was tested, and the Kd was > 4 mM (inactive).
In the case of `CN1CN/C(=N\[N+](=O)[O-])N(c2ccccc2)C1`, the Kd is reported as > 4 mM (inactive).
For `Nc1ccc2c(c1)COc1ccccc1O2`, the Kd was > 4 mM (inactive).
With `COc1c(F)c(F)c(-c2csc(N)n2)c(F)c1F` the Kd was > 4 mM (inactive).
For `CC1(NC(=O)NCc2ccccc2)CCS(=O)(=O)C1` (configuration not stated), the Kd was > 4 mM (inactive).
`COc1cc2c(cc1OC)C(=O)OC2` was tested, and the Kd was > 4 mM (inactive).
In the case of `C[n+]1cccc(C(=O)[O-])c1`, the Kd is reported as > 4 mM (inactive).
